Results: patent US9624242B2, “11-2(2-pyrrolidin-1-yl-ethoxy)-14,19-dioxa-5,7,26-triaza-tetracyclo[19.3.1.1(2,6).1(8,12)]heptacosa-1(25),2(26),3,5,8,10,12(27),16,21,23-decaene citrate salt” (CTI BIOPHARMA CORP., priority 2008, dated 2017)
Structures can show the parent of a compound that is named as a salt. Where two headings read alike, the source gives them in different places. One block for each compound: values may come before it.

Key:
Format in all cases: physicochemical
[1] = Stress tests at elevated temperature and humidity, analysed by XRPD
Protocol: The group three material was stressed under conditions which might cause it is to convert to group one material or, indeed, another hydrated or polymorphic form. Thus samples were stored at 40° C./75% RH and also at 60° C./96% RH and analysed at regular intervals by XRPD.
The stability of the citrate salt group A material was tested in harsher conditions, when the samples were kept for a week in a humidity chamber at 60° C. and 96% RH.

[2] = Maturation of citrate salt in 27 solvents, solids analysed by XRPD
Protocol: In order to determine the propensity of polymorphism for the citrate salt the group A material was maturated in 27 different solvents. A small amount of solid was slurried with the corresponding solvent (see Table 4 below) and stored in the incubator and subjected to 4 h-heat/cool cycles at 50° C./r.t. for 24 h. The solvents were then removed under vacuum, and the remaining solids analysed by XRPD.

[3] = Solid form analysis of salt batches (XRPD, DSC, TGA, GVS)
Description: Initial studies into compound I involved analysis of the hydrochloride salt. It was found as summarised in Table 1 below, that the initially prepared hydrochloride salt produces an inconsistent solid form with significant variability in the DSC, TGA, GVS and XRPD pattern (see FIGS. 1 to 16).
The samples of both hydrochloride (comparative) and citrate salts were subjected to X-ray diffraction to determine the characteristic X-ray diffraction pattern. The conditions used were as follows: X-Ray Powder Diffraction patterns were collected on a Siemens D5000 diffractometer using Cu Kα radiation (40 kV, 40 mA), θ-θ goniometer, divergence of V20 and receiving slits, a graphite secondary monochromator and a scintillation counter. The instrument is performance checked using a certified Corundum standard (NIST 1976).
Samples run under ambient conditions were prepared as flat plate specimens using powder as received. Approximately 35 mg of the sample was gently packed into a cavity cut into polished, zero-background (510) silicon wafer. The sample was rotated in its own plane during analysis. The details of the data collection are: • Angular range: 2 to 42°2θ • Step size: 0.05°2θ • Collection time: 4 s·step^1.
Alternatively, X-Ray Powder Diffraction patterns were collected on a Bruker AXS C2 GADDS diffractometer using Cu Kα radiation (40 kV, 40 mA), automated XYZ stage, laser video microscope for auto-sample positioning and a HiStar 2-dimensional area detector. X-ray optics consists of a single Gabel multilayer mirror coupled with a pinhole collimator of 0.3 mm. The beam divergence, i.e. the effective size of the X-ray beam on the sample, was approximately 4 mm. A θ-θ continuous scan mode was employed with a sample-detector distance of 20 cm which gives an effective 2θ range of 3.2°-29.7°. Typically the sample would be exposed to the X-ray beam for 120 seconds.
Samples run under ambient conditions were prepared as flat plate specimens using powder as received without grinding. Approximately 1-2 mg of the sample was lightly pressed on a glass slide to obtain a flat surface.

[4] = Thermal gravimetric analysis (TGA); conditions: for TGA weight loss before degradation / melt with decomposition: result in words
Protocol: The samples of both hydrochloride (comparative) and citrate salts were subjected to thermal gravimetric analysis and differential scanning calorimetry under the following conditions. DSC data were collected on a TA Instruments Q2000 equipped with a 50 position auto-sampler. The instrument was calibrated for energy and temperature calibration using certified indium. Typically 0.5-3 mg of each sample, in a pin-holed aluminium pan, was heated at 10° C.·min^−1 from 25° C. to 270° C.
TGA data were collected on a TA Instruments Q500 TGA, equipped with a 16 position auto-sampler. The instrument was temperature calibrated using certified Alumel. Typically 5-30 mg of each sample was loaded onto a pre-tared platinum crucible and aluminium DSC pan, and was heated at 10° C.·min^−1 from ambient temperature to 300° C. A nitrogen purge at 60 ml·min^−1 was maintained over the sample. The instrument control software was Thermal Advantage v4.6.6 and the data were analysed using Universal Analysis v4.3A. Alternatively, TGA data were collected on a Mettler TGA/SDTA 851e equipped with a 34 position auto-sampler. The instrument was temperature calibrated using certified indium. Typically 5-30 mg to of each sample was loaded onto a pre-weighed aluminium crucible and was heated at 10° C.·min^−1 from ambient temperature to 300° C. A nitrogen purge at 50 ml·min^−1 was maintained over the sample. The instrument control and data analysis software was STARe v9.01.

[5] = Gravimetric Vapour Sorption (GVS) with post-GVS XRPD; conditions: for GVS mass lost on going to dryness: from 90% RH to dryness; for solid form / XRPD pattern post GVS compared with before: XRPD after GVS experiment; for GVS mass gain: from 40% RH to 90% RH
Karl-Fischer analysis = assay: Karl-Fischer analysis
[6] = Variable temperature X-ray diffraction
Protocol: Samples run under non-ambient conditions were mounted on a silicon wafer with heat-conducting compound. The sample was then heated to the appropriate temperature at ca. 10° C.·min^−1 and subsequently held isothermally for ca 2 minutes before data collection was initiated.
In order to probe the stability of the samples of the citrate salts variable temperature X-ray diffraction was carried out. Thus, the salts were scanned under X-ray diffraction conditions at a series of temperatures and the characteristic peaks determined.

[7] = hydrochloride salt batches, hydrochloride

- change of crystalline pattern (XRPD) after stress ([1]; one week in humidity chamber at 60° C. and 96% RH): no changes are observed
- Solid Form after maturation ([2]; 1,4-dioxane): Form A
- Solid Form after maturation ([2]; 1-butanol): Form A
- Solid Form after maturation ([2]; 1-pentanol): Form A
- Solid Form after maturation ([2]; 1-propanol): Form A
- Solid Form after maturation ([2]; 2-butanol): Form A
- Solid Form after maturation ([2]; 2-methoxy ethanol): Form A
- Solid Form after maturation ([2]; 3-methyl-1-butanol): Form A
- solid forms identified after maturation ([2]; 27 different solvents, 4 h heat/cool cycles 50° C./r.t. for 24 h): only one solid form
- Solid Form after maturation ([2]; Acetonitrile): Form A
- Solid Form after maturation ([2]; Cyclohexane): Form A
- Solid Form after maturation ([2]; DMSO): Form A
- Solid Form after maturation ([2]; Dicloro-methane): Form A
- Solid Form after maturation ([2]; Ethanol): Form A
- Solid Form after maturation ([2]; Ethyl acetate): Form A
- Solid Form after maturation ([2]; Heptane): Form A
- Solid Form after maturation ([2]; IPA): Form A
- Solid Form after maturation ([2]; Isobutyl acetate): Form A
- Solid Form after maturation ([2]; Isopropyl acetate): Form A
- Solid Form after maturation ([2]; Methyl isobutyl ketone): Form A
- Solid Form after maturation ([2]; Methylethyl ketone): Form A
- Solid Form after maturation ([2]; Nitromethane): Form A
- Solid Form after maturation ([2]; Propyl acetate): Form A
- Solid Form after maturation ([2]; TBME): Form A
- Solid Form after maturation ([2]; Tetrahydro furan): Form A
- Solid Form after maturation ([2]; Toluene): Form A
- Solid Form after maturation ([2]; Water): Form A
- Solid Form after maturation ([2]; acetone): Form A
- Solid Form after maturation ([2]; methanol): Form A
SMILES: C1=C/COCc2cc(ccc2OCCN2CCCC2)Nc2nccc(n2)-c2cccc(c2)COC/1 [citrate salt group A material, 11-(2-pyrrolidin-1-yl-ethoxy)-14,19-dioxa-5,7,26-triaza-tetracyclo[19.3.1.1(2,6).1(8,12)]heptacosa-1(25),2(26),3,5,8,10,12(27),16,21,23-decaene]

SMILES: C1=CCOCc2cc(ccc2OCCN2CCCC2)Nc2nccc(n2)-c2cccc(c2)COC1.Cl [Batch HCl 1, 11-(2-pyrrolidin-1-yl-ethoxy)-14,19-dioxa-5,7,26-triaza-tetracyclo[19.3.1.1(2,6).1(8,12)]heptacosa-1(25),2(26),3,5,8,10,12(27),16,21,23-decaene hydrochloride]
- Solid Form Comment [3, 7]: Group 1 + 3 + amorphous
- equivalents of water corresponding to TGA weight loss ([4]; hydrochloride): 1.4 equivalents of water
- TGA two stage weight loss, total ([4]; up to 100° C.): 4.5%
- GVS adsorption of water in the initial adsorption cycle ([5]; at 90% RH): 5.5%
- GVS mass lost on going to dryness ([5]; hydrochloride): 5%
- GVS mass regained ([5]; from dryness to 40% RH): 2%
- GVS total gain ([5]; whole GVS cycle): 2%

SMILES: C1=CCOCc2cc(ccc2OCCN2CCCC2)Nc2nccc(n2)-c2cccc(c2)COC1.Cl [Batch HCl 2, 11-(2-pyrrolidin-1-yl-ethoxy)-14,19-dioxa-5,7,26-triaza-tetracyclo[19.3.1.1(2,6).1(8,12)]heptacosa-1(25),2(26),3,5,8,10,12(27),16,21,23-decaene hydrochloride]
- Solid Form Comment [3, 7]: Predominately Group 1
- decomposition / degradation temperature in TGA [4]: 260 °C
- water lost in the first phase of the TGA ([4]; hydrochloride): 5.6%
- equivalents of water corresponding to TGA weight loss ([4]; hydrochloride): 1.67 equivalents of water

SMILES: C1=CCOCc2cc(ccc2OCCN2CCCC2)Nc2nccc(n2)-c2cccc(c2)COC1.Cl [Batch HCl 4, 11-(2-pyrrolidin-1-yl-ethoxy)-14,19-dioxa-5,7,26-triaza-tetracyclo[19.3.1.1(2,6).1(8,12)]heptacosa-1(25),2(26),3,5,8,10,12(27),16,21,23-decaene hydrochloride]
- Solid Form Comment [3, 7]: Group 1
- TGA mass loss ([4]; between ambient and 108° C.): 6.5%
- solid form / XRPD pattern post GVS compared with before ([5]; hydrochloride): unchanged
- GVS mass gain [5]: 1.6%
- GVS mass lost on going to dryness ([5]; hydrochloride): 2.8%

SMILES: C1=CCOCc2cc(ccc2OCCN2CCCC2)Nc2nccc(n2)-c2cccc(c2)COC1.Cl [group 3 hydrochloride, 11-(2-pyrrolidin-1-yl-ethoxy)-14,19-dioxa-5,7,26-triaza-tetracyclo[19.3.1.1(2,6).1(8,12)]heptacosa-1(25),2(26),3,5,8,10,12(27),16,21,23-decaene hydrochloride]
- solid form by XRPD after stress (Comment) ([1]; 40° C./75% RH, 0 hrs): Group three
- solid form by XRPD after stress (Comment) ([1]; 40° C./75% RH, 24 hrs): Group three
- solid form by XRPD after stress (Comment) ([1]; 40° C./75% RH, 48 hrs): Group three
- solid form by XRPD after stress (Comment) ([1]; 40° C./75% RH, 72 hrs): Group one
- solid form by XRPD after stress (Comment) ([1]; 60° C./96% RH, 0 hrs): Group three
- solid form by XRPD after stress (Comment) ([1]; 60° C./96% RH, 24 hrs): Group one

SMILES: C1=CCOCc2cc(ccc2OCCN2CCCC2)Nc2nccc(n2)-c2cccc(c2)COC1.Cl [Batch HCl 5, 11-(2-pyrrolidin-1-yl-ethoxy)-14,19-dioxa-5,7,26-triaza-tetracyclo[19.3.1.1(2,6).1(8,12)]heptacosa-1(25),2(26),3,5,8,10,12(27),16,21,23-decaene hydrochloride]
- Solid Form Comment [3, 7]: Group 2

SMILES: C1=CCOCc2cc(ccc2OCCN2CCCC2)Nc2nccc(n2)-c2cccc(c2)COC1.Cl [Batch HCl 3, 11-(2-pyrrolidin-1-yl-ethoxy)-14,19-dioxa-5,7,26-triaza-tetracyclo[19.3.1.1(2,6).1(8,12)]heptacosa-1(25),2(26),3,5,8,10,12(27),16,21,23-decaene hydrochloride]
- Solid Form Comment [3, 7]: Group 1 + 3 + little amorphous
- decomposition / degradation temperature in TGA [4]: 260 °C
- total weight lost in the TGA [4]: 3.4%
- another loss in TGA ([4]; at 165° C.): 1.97%
- water lost in the first phase of the TGA ([4]; hydrochloride): 1.5%
- equivalents of water corresponding to TGA weight loss ([4]; hydrochloride): 0.5 equivalents of water
- equivalents of water by Karl-Fischer analysis (Karl-Fischer analysis): 1.1 equivalents
- water content by Karl-Fischer analysis (Karl-Fischer analysis): 3.79%

- Solid Form Comment ([3]; citrate salt batches): Group A
- decomposition / degradation temperature in TGA [4]: 180 °C
- TGA weight loss before degradation / melt with decomposition [4]: no weight loss
- solid form / XRPD pattern post GVS compared with before [5]: no change
- GVS water taken up ([5]; between 0 and 90% RH): less than 0.8%
- hygroscopicity ([5]; result in words): low hygroscopicity
SMILES: C1=C/COCc2cc(ccc2OCCN2CCCC2)Nc2nccc(n2)-c2cccc(c2)COC/1 [Batch Citrate 1, 11-(2-pyrrolidin-1-yl-ethoxy)-14,19-dioxa-5,7,26-triaza-tetracyclo[19.3.1.1(2,6).1(8,12)]heptacosa-1(25),2(26),3,5,8,10,12(27),16,21,23-decaene]
- change of X-ray diffraction pattern with temperature [6]: no change irrespective of the temperature

SMILES: C1=CCOCc2cc(ccc2OCCN2CCCC2)Nc2nccc(n2)-c2cccc(c2)COC1.Cl [Batch HCl 6, 11-(2-pyrrolidin-1-yl-ethoxy)-14,19-dioxa-5,7,26-triaza-tetracyclo[19.3.1.1(2,6).1(8,12)]heptacosa-1(25),2(26),3,5,8,10,12(27),16,21,23-decaene hydrochloride]
- Solid Form Comment [3, 7]: Group 3
- decomposition / degradation temperature in TGA ([4]; hydrochloride): around 240 °C
- TGA weight loss before degradation / melt with decomposition [4]: very little weight loss
- solid form / XRPD pattern post GVS compared with before ([5]; hydrochloride): unchanged
- GVS mass gain [5]: 1.6%
- GVS mass lost on going to dryness ([5]; hydrochloride): 2.4%
